Measured values taken from ChEMBL document CHEMBL3621142, “Discovery and Evaluation of Clinical Candidate AZD3759, a Potent, Oral Active, Central Nervous System-Penetrant, Epidermal Growth Factor Receptor Tyrosine Kinase Inhibitor” (J Med Chem, 2015).
Calls of active or inactive are those of the source. The calls are words filed in the database; no cut-off is given here.

What was measured:
[1] = Fraction unbound in Han Wistar rat blood at 5 uM by equilibrium dialysis method; format: ADME, tissue-based; details: Han Wistar
[2] = Fraction unbound in Han Wistar rat brain at 5 uM by equilibrium dialysis method; format: ADME, tissue-based; details: Han Wistar, brain
[3] = Elimination half life in Han Wistar rat at 2 mg/kg, po; format: ADME, organism-based; details: in vivo, read-out: beta t1/2 (converted)
[4] = Oral bioavailability in Han Wistar rat at 2 mg/kg; format: ADME, organism-based; details: Han Wistar, in vivo
[5] = AUC (0 to 7 hrs) in Han Wistar rat brain at 2 mg/kg, po by LC-MS/MS analysis; format: ADME, organism-based; parameters: dose 2 mg/kg, time < 7 hr, route oral; details: Han Wistar, brain
[6] = AUC (0 to 7 hrs) in Han Wistar rat CSF at 2 mg/kg, po by LC-MS/MS analysis; format: ADME, organism-based, Cerebrospinal fluid; parameters: time < 7 hr, dose 2 mg/kg, route oral; details: Han Wistar, CSF
[7] = AUC (0 to 7 hrs) in Han Wistar rat blood at 2 mg/kg, po by LC-MS/MS analysis; format: ADME, organism-based; parameters: dose 2 mg/kg, time < 7 hr, route oral; details: Han Wistar, blood
[8] = Ratio of unbound AUC (0 to 7 hrs) in brain to blood of Han Wistar rat at 2 mg/kg, po by LC-MS/MS analysis; format: ADME, organism-based; details: Han Wistar, brain and blood, read-out: K(p,uu,brain)
[9] = Ratio of unbound AUC (0 to 7 hrs) in CSF to blood of Han Wistar rat at 2 mg/kg, po by LC-MS/MS analysis; format: ADME, organism-based; details: Han Wistar, CSF and blood
[10] = Elimination half life in Han Wistar rat at 1 mg/kg, iv; format: ADME, organism-based; details: Han Wistar, in vivo, read-out: beta t1/2 (converted)
[11] = Clearance in Han Wistar rat at 1 mg/kg, iv; format: ADME, organism-based; details: in vivo
[12] = Volume of distribution at steady state in Han Wistar rat at 1 mg/kg, iv; format: ADME, organism-based; details: Han Wistar, in vivo, read-out: Vdss
[13] = AUC(0 to 24 hrs) in Han Wistar rat at 2 mg/kg, po; format: ADME, organism-based; parameters: dose 2 mg/kg, time < 24 hr, route oral; details: Han Wistar, in vivo
[14] = tested on: Hepatocyte; test: Intrinsic clearance in human hepatocytes; format: ADME, cell-based
[15] = Cmax in Han Wistar rat at 2 mg/kg, po at 1 hr; format: ADME, organism-based; parameters: dose 2 mg/kg, route oral; details: in vivo
[16] = Antiproliferative against human PC9 cells expressing EGFR exon19 deletion mutant after 72 hrs by MTS assay; format: functional, cell-based; details: PC-9, 72 h
[17] = Antiproliferative against human H3255 cells expressing EGFR L858R mutant after 72 hrs by MTS assay; format: functional, cell-based; details: NCI-H3255, 72 h
[18] = tested on: NCI-H838; test: Antiproliferative against human NCI-H838 cells expressing EGFR wild-type after 72 hrs by MTS assay; format: functional, cell-based; details: NCI-H838, 72 h
[19] = molecular target: Ephrin type-B receptor 4 (Homo sapiens) (UniProt P54760); test: Inhibition of recombinant EpHB4 (unknown origin) at 1 uM after 40 mins by scintillation counting analysis in presence of [gamma33P]-ATP
[20] = molecular target: Vascular endothelial growth factor receptor 1 (Homo sapiens) (UniProt P17948); test: Inhibition of recombinant Flt (unknown origin) at 1 uM after 40 mins by scintillation counting analysis in presence of [gamma33P]-ATP
[21] = molecular target: Tyrosine-protein kinase Fyn (Homo sapiens) (UniProt P06241); test: Inhibition of recombinant Fyn (unknown origin) at 1 uM after 40 mins by scintillation counting analysis in presence of [gamma33P]-ATP
Tyrosine-protein kinase Fyn (Homo sapiens), sequence (P06241 2-537 limits assumed): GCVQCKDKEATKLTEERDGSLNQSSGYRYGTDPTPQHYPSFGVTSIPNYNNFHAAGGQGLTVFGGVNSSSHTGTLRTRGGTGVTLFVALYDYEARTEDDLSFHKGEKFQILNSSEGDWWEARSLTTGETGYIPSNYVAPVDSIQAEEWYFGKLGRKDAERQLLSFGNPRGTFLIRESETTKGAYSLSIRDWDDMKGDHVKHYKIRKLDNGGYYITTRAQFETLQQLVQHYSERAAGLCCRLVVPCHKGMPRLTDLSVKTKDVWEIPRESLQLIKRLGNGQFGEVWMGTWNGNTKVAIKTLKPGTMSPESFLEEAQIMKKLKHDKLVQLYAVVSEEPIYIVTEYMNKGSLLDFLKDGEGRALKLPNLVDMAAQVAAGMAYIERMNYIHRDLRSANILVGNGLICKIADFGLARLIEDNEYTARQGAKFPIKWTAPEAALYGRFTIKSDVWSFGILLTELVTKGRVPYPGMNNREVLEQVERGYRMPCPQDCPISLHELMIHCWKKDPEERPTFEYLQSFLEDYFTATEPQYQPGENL

[22] = molecular target: T1, Vascular endothelial growth factor receptor 2 (Homo sapiens, UniProt P35968); test: Inhibition of recombinant KDR (unknown origin) at 1 uM after 40 mins by scintillation counting analysis in presence of [gamma33P]-ATP
T1 sequence (P35968 whole entry): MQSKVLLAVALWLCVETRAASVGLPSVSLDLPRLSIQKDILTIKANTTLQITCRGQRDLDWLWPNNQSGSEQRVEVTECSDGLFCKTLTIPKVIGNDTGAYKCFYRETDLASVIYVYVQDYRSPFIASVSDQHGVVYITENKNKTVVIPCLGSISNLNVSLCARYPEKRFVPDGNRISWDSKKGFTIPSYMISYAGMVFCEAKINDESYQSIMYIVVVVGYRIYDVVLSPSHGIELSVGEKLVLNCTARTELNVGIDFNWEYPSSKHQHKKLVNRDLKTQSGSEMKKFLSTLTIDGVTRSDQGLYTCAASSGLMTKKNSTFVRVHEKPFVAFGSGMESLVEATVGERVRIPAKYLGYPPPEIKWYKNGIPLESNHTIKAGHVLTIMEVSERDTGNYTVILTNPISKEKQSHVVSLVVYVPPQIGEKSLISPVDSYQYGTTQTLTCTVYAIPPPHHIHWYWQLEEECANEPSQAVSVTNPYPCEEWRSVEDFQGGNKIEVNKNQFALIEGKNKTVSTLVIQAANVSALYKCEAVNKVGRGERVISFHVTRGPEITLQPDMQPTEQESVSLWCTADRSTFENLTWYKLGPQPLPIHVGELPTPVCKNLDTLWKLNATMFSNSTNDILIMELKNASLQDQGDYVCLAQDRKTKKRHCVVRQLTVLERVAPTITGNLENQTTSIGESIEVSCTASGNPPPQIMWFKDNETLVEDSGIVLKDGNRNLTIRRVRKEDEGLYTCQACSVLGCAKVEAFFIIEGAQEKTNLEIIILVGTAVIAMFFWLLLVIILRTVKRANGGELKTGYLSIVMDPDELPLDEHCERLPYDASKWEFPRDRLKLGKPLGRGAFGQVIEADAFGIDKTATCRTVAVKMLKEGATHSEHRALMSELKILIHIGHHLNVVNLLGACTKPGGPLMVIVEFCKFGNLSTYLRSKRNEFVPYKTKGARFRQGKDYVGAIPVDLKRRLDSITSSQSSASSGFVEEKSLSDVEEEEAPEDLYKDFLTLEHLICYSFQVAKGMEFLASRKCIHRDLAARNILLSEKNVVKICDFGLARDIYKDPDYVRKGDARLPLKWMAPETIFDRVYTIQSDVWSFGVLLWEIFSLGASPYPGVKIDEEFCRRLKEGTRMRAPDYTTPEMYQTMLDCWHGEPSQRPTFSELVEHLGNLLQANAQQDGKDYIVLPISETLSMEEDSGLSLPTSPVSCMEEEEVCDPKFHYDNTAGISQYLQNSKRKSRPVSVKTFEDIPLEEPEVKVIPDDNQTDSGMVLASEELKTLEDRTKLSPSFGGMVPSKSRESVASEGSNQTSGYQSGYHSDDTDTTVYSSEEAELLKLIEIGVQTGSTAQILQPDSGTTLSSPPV

[23] = molecular target: Tyrosine-protein kinase Lck (Homo sapiens) (UniProt P06239); test: Inhibition of recombinant Lck (unknown origin) at 1 uM after 40 mins by scintillation counting analysis in presence of [gamma33P]-ATP
[24] = molecular target: Tyrosine-protein kinase Lyn (Homo sapiens) (UniProt P07948); test: Inhibition of recombinant Lyn (unknown origin) at 1 uM after 40 mins by scintillation counting analysis in presence of [gamma33P]-ATP
[25] = molecular target: T2, Proto-oncogene tyrosine-protein kinase Src (Homo sapiens, UniProt P12931); test: Inhibition of recombinant Src (unknown origin) at 1 uM after 40 mins by scintillation counting analysis in presence of [gamma33P]-ATP
T2 sequence (P12931 2-536 limits assumed): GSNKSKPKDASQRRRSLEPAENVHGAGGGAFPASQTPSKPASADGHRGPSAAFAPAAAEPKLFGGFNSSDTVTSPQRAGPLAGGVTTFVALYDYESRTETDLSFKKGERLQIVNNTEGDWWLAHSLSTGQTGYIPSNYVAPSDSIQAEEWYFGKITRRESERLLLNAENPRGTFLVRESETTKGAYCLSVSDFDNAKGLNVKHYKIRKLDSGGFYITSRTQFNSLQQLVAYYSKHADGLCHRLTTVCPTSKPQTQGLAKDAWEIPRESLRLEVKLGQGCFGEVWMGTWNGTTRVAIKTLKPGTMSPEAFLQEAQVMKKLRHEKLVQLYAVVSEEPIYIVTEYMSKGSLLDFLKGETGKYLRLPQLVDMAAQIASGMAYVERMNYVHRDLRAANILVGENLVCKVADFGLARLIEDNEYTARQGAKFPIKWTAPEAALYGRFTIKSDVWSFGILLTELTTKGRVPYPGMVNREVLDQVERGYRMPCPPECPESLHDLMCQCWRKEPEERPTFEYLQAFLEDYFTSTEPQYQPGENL

[26] = molecular target: Tyrosine-protein kinase Yes (Homo sapiens) (UniProt P07947); test: Inhibition of recombinant Yes (unknown origin) at 1 uM after 40 mins by scintillation counting analysis in presence of [gamma33P]-ATP
[27] = molecular target: T1, Vascular endothelial growth factor receptor 2; test: Inhibition of recombinant KDR (unknown origin) after 40 mins by scintillation counting analysis in presence of [gamma33P]-ATP
[28] = molecular target: T2, Proto-oncogene tyrosine-protein kinase Src; test: Inhibition of recombinant Src (unknown origin) after 40 mins by scintillation counting analysis in presence of [gamma33P]-ATP
[29] = molecular target: D(2) dopamine receptor (Homo sapiens, UniProt P14416); test: Inhibition of recombinant D2 receptor (unknown origin)
D(2) dopamine receptor, sequence (P14416 whole entry): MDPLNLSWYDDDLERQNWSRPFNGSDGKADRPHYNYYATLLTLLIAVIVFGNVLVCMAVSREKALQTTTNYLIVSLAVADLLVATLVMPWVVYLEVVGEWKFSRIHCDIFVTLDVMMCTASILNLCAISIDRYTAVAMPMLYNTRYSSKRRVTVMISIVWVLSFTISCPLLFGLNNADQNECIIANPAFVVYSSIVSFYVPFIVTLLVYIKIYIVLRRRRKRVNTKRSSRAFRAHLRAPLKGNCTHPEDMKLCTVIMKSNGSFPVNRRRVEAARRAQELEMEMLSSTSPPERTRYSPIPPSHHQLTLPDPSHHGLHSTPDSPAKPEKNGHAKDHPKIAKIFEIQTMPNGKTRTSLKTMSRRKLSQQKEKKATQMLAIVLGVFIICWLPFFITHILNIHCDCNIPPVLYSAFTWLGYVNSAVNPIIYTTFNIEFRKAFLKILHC

[30] = molecular target: Cytochrome P450 1A2 (Homo sapiens, UniProt P05177); test: Inhibition of CYP1A2 (unknown origin); format: ADME
[31] = molecular target: Cytochrome P450 2B6 (Homo sapiens, UniProt P20813); test: Inhibition of CYP2B6 (unknown origin); format: ADME
[32] = molecular target: Cytochrome P450 2C8 (Homo sapiens, UniProt P10632); test: Inhibition of CYP2C8 (unknown origin); format: ADME
[33] = molecular target: Cytochrome P450 2C9 (Homo sapiens, UniProt P11712); test: Inhibition of CYP2C9 (unknown origin); format: ADME
Cytochrome P450 2C9, sequence (P11712 whole entry): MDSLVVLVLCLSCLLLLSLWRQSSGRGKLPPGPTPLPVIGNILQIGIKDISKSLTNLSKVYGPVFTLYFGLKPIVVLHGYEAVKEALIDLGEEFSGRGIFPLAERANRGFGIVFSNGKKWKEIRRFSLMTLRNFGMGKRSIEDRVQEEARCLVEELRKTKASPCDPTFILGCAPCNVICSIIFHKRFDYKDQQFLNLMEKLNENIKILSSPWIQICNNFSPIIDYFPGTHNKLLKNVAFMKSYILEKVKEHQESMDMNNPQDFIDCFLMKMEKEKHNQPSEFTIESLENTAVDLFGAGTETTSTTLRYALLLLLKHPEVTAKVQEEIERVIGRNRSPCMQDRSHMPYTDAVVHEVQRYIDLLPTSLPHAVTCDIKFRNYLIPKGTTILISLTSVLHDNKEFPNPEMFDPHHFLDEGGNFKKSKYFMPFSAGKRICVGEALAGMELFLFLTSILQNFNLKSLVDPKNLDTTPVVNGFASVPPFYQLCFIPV

[34] = molecular target: Cytochrome P450 2C19 (Homo sapiens, UniProt P33261); test: Inhibition of CYP2C19 (unknown origin); format: ADME
Cytochrome P450 2C19, sequence (P33261 whole entry): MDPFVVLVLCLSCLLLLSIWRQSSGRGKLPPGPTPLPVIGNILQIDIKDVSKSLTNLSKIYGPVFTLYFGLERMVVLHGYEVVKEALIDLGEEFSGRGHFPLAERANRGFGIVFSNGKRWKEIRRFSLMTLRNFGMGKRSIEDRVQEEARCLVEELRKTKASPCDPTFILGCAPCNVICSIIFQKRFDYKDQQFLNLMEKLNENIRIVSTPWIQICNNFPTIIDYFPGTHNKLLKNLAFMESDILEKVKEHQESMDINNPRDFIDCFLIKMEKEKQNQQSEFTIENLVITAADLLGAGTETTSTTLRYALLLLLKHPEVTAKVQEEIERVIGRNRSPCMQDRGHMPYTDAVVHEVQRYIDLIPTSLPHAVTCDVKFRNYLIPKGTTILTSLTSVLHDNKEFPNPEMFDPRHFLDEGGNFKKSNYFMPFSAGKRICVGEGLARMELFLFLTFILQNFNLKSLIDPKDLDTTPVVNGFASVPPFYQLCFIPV

[35] = molecular target: Cytochrome P450 2D6 (Homo sapiens, UniProt P10635); test: Inhibition of CYP2D6 (unknown origin); format: ADME
Cytochrome P450 2D6, sequence (P10635 whole entry): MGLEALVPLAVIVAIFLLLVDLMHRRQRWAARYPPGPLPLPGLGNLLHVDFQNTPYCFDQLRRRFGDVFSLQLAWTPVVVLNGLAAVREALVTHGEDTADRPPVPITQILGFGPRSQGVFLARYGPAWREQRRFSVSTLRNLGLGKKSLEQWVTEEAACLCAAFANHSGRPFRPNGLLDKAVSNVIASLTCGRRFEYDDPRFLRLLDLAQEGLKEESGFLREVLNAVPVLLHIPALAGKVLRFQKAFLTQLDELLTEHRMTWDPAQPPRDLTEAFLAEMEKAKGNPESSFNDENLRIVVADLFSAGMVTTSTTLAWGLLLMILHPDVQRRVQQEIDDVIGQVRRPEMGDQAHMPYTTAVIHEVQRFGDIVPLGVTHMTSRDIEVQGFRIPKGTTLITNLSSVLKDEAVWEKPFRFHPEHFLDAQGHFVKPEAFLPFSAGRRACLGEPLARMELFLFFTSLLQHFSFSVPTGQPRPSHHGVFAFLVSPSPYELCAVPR

[36] = molecular target: Cytochrome P450 3A4 (Homo sapiens, UniProt P08684); test: Inhibition of CYP3A4 (unknown origin); format: ADME
Cytochrome P450 3A4, sequence (P08684 whole entry): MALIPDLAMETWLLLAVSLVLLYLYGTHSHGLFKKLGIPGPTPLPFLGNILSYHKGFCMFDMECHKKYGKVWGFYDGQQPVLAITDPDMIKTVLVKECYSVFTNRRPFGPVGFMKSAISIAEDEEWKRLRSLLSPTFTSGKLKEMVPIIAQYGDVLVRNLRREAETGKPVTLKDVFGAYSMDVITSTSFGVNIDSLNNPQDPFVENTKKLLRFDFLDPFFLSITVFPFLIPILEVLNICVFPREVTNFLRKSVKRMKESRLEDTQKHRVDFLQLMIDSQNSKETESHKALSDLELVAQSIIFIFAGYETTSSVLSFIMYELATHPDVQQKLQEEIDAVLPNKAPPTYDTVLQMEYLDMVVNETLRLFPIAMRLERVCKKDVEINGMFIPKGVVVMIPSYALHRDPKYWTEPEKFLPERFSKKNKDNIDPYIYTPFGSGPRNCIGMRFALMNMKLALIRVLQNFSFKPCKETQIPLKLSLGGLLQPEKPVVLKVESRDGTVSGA

[37] = molecular target: Cytochrome P450 3A5 (Homo sapiens, UniProt P20815); test: Inhibition of CYP3A5 (unknown origin); format: ADME
[38] = AUC(0 to 24 hrs) in beagle dog at 1 mg/kg, iv; format: ADME, organism-based, Canis lupus familiaris; parameters: dose 1 mg/kg, time < 24 hr, route intravenous; details: in vivo
[39] = Permeability from apical to basolateral side in MDCK2-MDR1 cells; format: ADME, cell-based, Canis lupus familiaris, MDCK-II; details: dog, MDCK-MDR1
[40] = Elimination half life in beagle dog at 1 mg/kg, iv; format: ADME, organism-based, Canis lupus familiaris; details: in vivo, read-out: beta t1/2 (converted)
[41] = Clearance in beagle dog at 1 mg/kg, iv; format: ADME, organism-based, Canis lupus familiaris; details: in vivo
[42] = Volume of distribution at steady state in beagle dog at 1 mg/kg, iv; format: ADME, organism-based, Canis lupus familiaris; details: in vivo, read-out: Vdss
[43] = AUC(0 to 24 hrs) in beagle dog at 2 mg/kg, po; format: ADME, organism-based, Canis lupus familiaris; parameters: dose 2 mg/kg, time < 24 hr, route oral; details: in vivo
[44] = Elimination half life in beagle dog at 2 mg/kg, po; format: ADME, organism-based, Canis lupus familiaris; details: in vivo, read-out: beta t1/2 (converted)
[45] = Oral bioavailability in beagle dog at 2 mg/kg; format: ADME, organism-based, Canis lupus familiaris; details: in vivo
[46] = Tmax in beagle dog at 2 mg/kg, po; format: ADME, organism-based, Canis lupus familiaris; details: in vivo
[47] = Cmax in beagle dog at 2 mg/kg, po; format: ADME, organism-based, Canis lupus familiaris; parameters: dose 2 mg/kg, route oral; details: in vivo
[48] = Ratio of fraction unbound in brain to plasma of cynomolgus monkey at 150 MBq, iv by positron emission tomography; format: ADME, organism-based, Macaca fascicularis
[49] = Ratio of fraction unbound in brain to plasma of cynomolgus monkey at 155 MBq, iv by positron emission tomography; format: ADME, organism-based, Macaca fascicularis
[50] = tested on: PC-9; test: Antitumor activity against human PC9 cells expressing EGFR exon19 deletion mutant xenografted in mouse measured after 4 weeks; format: functional, cell-based
[51] = Antitumor activity against human PC9 cells expressing EGFR exon19 deletion mutant xenografted in mouse assessed as tumor growth inhibition at 7.5 mg/kg, qd measured after 4 weeks; format: functional; details: PC-9, 672 h
[52] = tested on: PC-9; test: Antitumor activity against human PC9 cells expressing EGFR exon19 deletion mutant xenografted in mouse assessed as tumor regression at 15 mg/kg, qd measured after 4 weeks; format: functional, organism-based
[53] = tested on: Mus musculus; test: Toxicity in PC9 cells expressing EGFR exon19 deletion mutant xenografted mouse assessed as loss of body weight at 7.5 mg/kg, qd; format: organism-based, PC-9; details: in vivo
[54] = tested on: Mus musculus; test: Toxicity in PC9 cells expressing EGFR exon19 deletion mutant xenografted mouse assessed as loss of body weight at 15 mg/kg, qd; format: organism-based, PC-9; details: in vivo
[55] = tested on: PC-9; test: Antitumor activity against human PC9 cells expressing EGFR exon19 deletion mutant xenografted in mouse assessed as decrease in tumor area in brain at 7.5 mg/kg, qd; format: functional, organism-based
[56] = tested on: PC-9; test: Antitumor activity against human PC9 cells expressing EGFR exon19 deletion mutant xenografted in mouse assessed as decrease in tumor area in brain at 15 mg/kg, qd; format: functional, organism-based
[57] = tested on: PC-9; test: Antitumor activity against human PC9 cells expressing EGFR exon19 deletion mutant xenografted in mouse assessed as modulation of pEGFR expression in brain at 15 mg/kg administered as single dose measured after 1 hr by immunohistochemical analysis; format: functional, organism-based

`COc1cc2ncnc(Nc3cccc(Cl)c3F)c2cc1OC(=O)N1CCN(C)C[C@H]1C` [AZD-3759] gave a fraction unbound at 5 µM [1] of 0.047, a fraction unbound at 5 µM [2] of 0.02 and a half-life [3] of 258 min. It also gave a bioavailability [4] of 91%, an AUC(0-t) at 7 h [5] of 3.69 µM·h and an AUC(0-t) at 7 h [6] of 0.076 µM·h. It also gave an AUC(0-t) at 7 h [7] of 1.23 µM·h, a Kp uu [8] of 1.3 and a Kp uu [9] of 1.3. For the same compound, the half-life [10] was 246 min, the clearance [11] was 17 mL/min/kg and the Vd [12] was 5.2 L/kg. For the same compound, the AUC(0-t) at 24 h [13] was 3.8 µM·h, the CLH [14] was 11.4 µL/min and the Cmax [15] was 580 nM. It also gave an IC50 [16] of 7.7 nM, an IC50 [17] of 7 nM and an IC50 [18] of 21.6 µM. The inhibition [19] was 83%, the inhibition [20] was 57% and the inhibition [21] was 58%. It also gave an inhibition [22] of 62%, an inhibition [23] of 61% and an inhibition [24] of 74%. The inhibition [25] was 69%, the inhibition [26] was 87% and the IC50 [27] was 156 nM. For the same compound, the IC50 [28] was 622 nM, the IC50 [29] was 797 nM and the IC50 [30] was greater than 50 µM. The IC50 [31] was greater than 50 µM, the IC50 [32] was greater than 50 µM and the IC50 [33] was greater than 50 µM. The IC50 [34] was greater than 50 µM, the IC50 [35] was greater than 50 µM and the IC50 [36] was greater than 50 µM. It also gave an IC50 [37] greater than 50 µM, an AUC(0-t) at 24 h [38] of 2.56 µM·h and a Papp A→B [39] of 36 ×10⁻⁶ cm/s. The half-life [40] was 372 min, the clearance [41] was 14 mL/min/kg and the Vd [42] was 6.4 L/kg. It also gave an AUC(0-t) at 24 h [43] of 4.62 µM·h, a half-life [44] of 330 min and a bioavailability [45] of 90.2%. The Tmax [46] was 30 min, the Cmax [47] was 698 nM and the BPR [48] was 0.5. The BPR [49] was 0.53, the Activity [50] was “Dose-dependent effect” and the inhibition in vivo at 7.5 mg/kg [51] was 78%. For the same compound, the Activity [52] was “Active”, the Activity [53] was less than 20% and the Activity [54] was less than 20%. The inhibition [55] was “Active”, the inhibition [56] was “Active” and the Activity [57] was “Active”.
